Test results published in patent publication US9127301B2, “Method of detecting the presence of polycyclic aromatic hydrocarbons” (BIOO SCIENTIFIC CORPORATION, priority 2012, dated 2015).

How the values were obtained:
NDO/NahB/NahC [1] = target: T1, NDO/NahB/NahC (Pseudomonas putida, UniProt P0A110); test: Coupled naphthalene dioxygenase/NahB/NahC colorimetric assay; format: biochemical
T1 construct: made in house; host or cells: E. coli JM109 (DE3) (pDTG141) for NDO; E. coli BL21 Star (DE3) for NahB and NahC
T1 sequence (P0A110 whole entry): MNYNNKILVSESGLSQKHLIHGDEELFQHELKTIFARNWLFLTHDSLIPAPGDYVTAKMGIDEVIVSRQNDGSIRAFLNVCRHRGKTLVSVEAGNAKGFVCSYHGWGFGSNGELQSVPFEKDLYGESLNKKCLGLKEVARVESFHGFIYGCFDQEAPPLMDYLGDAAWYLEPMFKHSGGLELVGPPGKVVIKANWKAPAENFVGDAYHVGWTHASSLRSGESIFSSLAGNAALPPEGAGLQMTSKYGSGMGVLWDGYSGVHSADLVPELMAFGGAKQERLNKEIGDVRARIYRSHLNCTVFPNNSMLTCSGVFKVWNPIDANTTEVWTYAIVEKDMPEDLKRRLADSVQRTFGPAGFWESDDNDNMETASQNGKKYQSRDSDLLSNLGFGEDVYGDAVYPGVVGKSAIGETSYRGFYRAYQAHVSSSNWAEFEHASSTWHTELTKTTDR
T1 sequence (P0A112 whole entry, further chain): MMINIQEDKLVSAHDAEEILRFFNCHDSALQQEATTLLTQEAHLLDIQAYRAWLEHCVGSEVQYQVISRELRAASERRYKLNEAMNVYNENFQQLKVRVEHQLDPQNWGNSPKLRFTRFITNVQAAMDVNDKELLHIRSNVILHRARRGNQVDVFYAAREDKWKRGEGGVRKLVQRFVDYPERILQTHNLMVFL
Excerpt: This disclosure relates to a method that uses microbial enzymes which degrade polyaromatic hydrocarbons to detect polycyclic aromatic hydrocarbons (PAH) in food and environmental samples. The first step in PAH degradation uses a PAH dioxygenase (PAHDO) enzyme such as naphthalene 1,2-dioxygenase (NDO) or biphenyl dioxygenase (BDO) to convert the PAH compound to PAH-(cis)-diol in an NADH- or NADPH-dependent manner.
The first reaction is catalyzed by the 1,2-dihydroxy-1,2-dihydronaphthalene dehydrogenase enzyme (NahB), while the second reaction is catalyzed by the enzyme 1,2-dihydroxynaphthalene dioxygenase (NahC). These enzymes are both derived from the bacteria Pseudomonas putida.
When these enzymes are used in succession, they function sequentially to convert colorless PAH compounds into a readily-detectable visible product class known as PAH chromene compounds.
(§1) 2 tubes each of NahB, Nahc, and NDO enzymes (1.7 ml aliquotes) were thawed from −20 C along with 2.6 mM NADH in water. 2.5 ml each of the NahC and NahB enzymes were desalted using PD-10 gel filtration and buffer exchanged into 20 mM Tris-Cl pH 8.5 at the same time. Once all of the reagents were thawed and desalted, positive and negative naphthalene reaction were made containing 127 ul each of NahB, NahC, and NDO with 20 ppm naphthalene in dimethylformamide (negative reactions contained only equal amounts dimethylformamide) and 0.133 mM NADH final concentration with a final reaction volume of 405 ul. The reaction was run at 25° C. for 2 hours and the sample absorbance was measured using a BioTek Synergy2 plate reader in the 320-640 nm wavelength range. […] Reactions for all PAH's conducted in the same, or a very similar format, depending on the volume of sample in the reaction. FIG. 4 depicts a spectrophotometric graph showing the absorbance caused by the presence of naphthalene placed in the above NDO/NahB/NahC assay.

NDO/NahB/NahC [2] = target: T1, NDO/NahB/NahC; test: Colorimetric detection of fluorene in spiked clam samples, NDO/NahB/NahC assay; format: biochemical; conditions: clam homogenate spiked to 80 ppm fluorene, dichloromethane extraction, 10 μl of 200 ppm DMF solution in 411 μl reaction, 2 hr, 25° C.
Description: as §1
Approximately 25 g of clams were homogenized using a blender; a 2 g sample of this 25 g preparation was spiked to 80 ppm fluorene. […] The reaction was run for 2 hr at 25° C. and then read on a BioTek Synergy2 plate reader from 320-640 nm. FIG. 5 depicts the absorbance of fluorene spiked clam samples in the NDO/NahB/NahC assay.

Structure (SMILES) | detection of PAH compound by the colorimetric assay (NDO/NahB/NahC [1]) | absorbance at 370 nm versus negative control reaction (NDO/NahB/NahC [1]; 20 ppm naphthalene in dimethylformamide, 0.133 mM NADH, 25° C., 2 hours) | absorbance at 390 nm versus buffer control or post-extraction spike (NDO/NahB/NahC [2])
c1ccc(-c2ccccc2)cc1 [biphenyl] | detect | – | –
c1ccc2c(c1)[nH]c1ccccc12 [carbazole] | detect | – | –
c1ccc2ccccc2c1 [naphthalene] | detect | significantly higher | –
c1ccc2cc3ccccc3cc2c1 [anthracene] | detect | – | –
c1ccc2c(c1)ccc1ccccc12 [phenanthrene] | detect | – | –
c1ccc2c(c1)Cc1ccccc1-2 [fluorene] | detect | – | slightly higher
c1ccc2c(c1)cc1ccc3cccc4ccc2c1c34 [benz(a)pyrene] | detect | – | –
